Source: patent US20230202985A1, “Indoles, Indazoles, and Related Analogs for Inhibiting YAP/TAZ-TEAD” (THE KATHOLIEKE UNIVERSITEIT LEUVEN, priority 2021, published 2023)

How the values were obtained:
Format in all cases: cell-based
NCI-H226 = test: Mesothelioma cell line proliferation assay (ATPlite), NCI-H226; settings: Homo sapiens, 144 h; NCI-H226 cells, 6 days with compound, cell viability by ATPlite
Procedure: (§1) Mesothelioma cell lines, NCI-H226 and NCI-H2052 (all sourced from the ATCC cell culture collection) are plated in 96-well plates (Corning® 96 Well White Polystyrene Microplate clear flat bottom, white polystyrene (TC-Treated)), at 1500 cells/well in full medium (RPMI 1640 ATCC modification with L-glutamine, HEPES, Phenol Red, Sodium Pyruvate, High glucose, Low sodium bicarbonate and 10% fetal bovine serum). Cells are incubated overnight at 37° C. in an incubator with 5% CO2. Then compounds, dissolved in DMSO, are added in dose-response. Cells are incubated with compound dilutions for another 6 days at 37° C. in an incubator with 5% CO2. Cell viability is quantitated using the ATPlite kit (Perkin-Elmer) and the luminescence is read-out using an Envision instrument (Perkin-Elmer). The amount of relative light units produced using the ATPlite kit is used to calculated percent of inhibition.
(§2) The activities of some example compounds are depicted in Table 7. The activity ranges A, B and C refer to EC50 values in the mesothelioma cell line proliferation assay as described as follows: “A”: EC50<1 μM; “B”: 1 μM≤EC50≤10 μM and “C”: EC50>10 μM; NT: not tested.

[1] = test system: YAP/TAZ-TEAD transcription; test: Reporter gene assay for measuring the inhibition of YAP/TAZ-TEAD transcription (TEAD-responsive element luciferase reporter in Hek293T cells); settings: Homo sapiens, HEK-293T; Hek293T cells transfected with TEAD-responsive luciferase reporter, 24 hours incubation
Procedure: Hek293T cells are cultured in DMEM supplemented with 10% fetal bovine serum, Sodium pyruvate, Sodium bicarbonate, L-glutamine. The cells are harvested and transiently transfected with TEAD-responsive element luciferase reporter. Transfected cells are plated in 384-wells plate containing pre-diluted compounds. After 24 hours incubation at 37° C./5% CO2, assay plates were cooled down to RT and levelled to an equal volume per well, prior to the addition of 25 uL luciferase substrate SteadyLite (Perkin Elmer)/well. The plate was shaken for 10 min at 600 rpm, centrifuged for 1 min at 500 rpm and measured with an Envision reader (PerkinElmer). The amount of relative light units produced by the TEAD reporter is used to calculated percent of inhibition.
The percent of reporter inhibition was calculated in the presence of a positive control inhibitor (100% inhibition) versus a condition with the presence of the vehicle basal activity of the reporter (0% inhibition). The ability of a test compound to inhibit this activity was determined as:
Percentage inhibition=[1−((RLU determined in the presence of vehicle−RLU determined for sample with test compound present) divided by (RLU determined in the presence of vehicle−RLU determined for sample with positive control inhibitor))]*100
The activities of example compounds tested are depicted in Table 6. The activity ranges A, B and C refer to IC50 values in the reporter gene assay as follows: “A”: IC50<1 μM; “B”: 1 μM≤IC50≤20 μM and “C”: IC50>20 μM; NT=not tested.

NCI-H2052 = test: Mesothelioma cell line proliferation assay (ATPlite), NCI-H2052; settings: Homo sapiens, 144 h; NCI-H2052 cells, 6 days with compound, cell viability by ATPlite
Procedure: as §1, §2

Row | Compound | EC50 (NCI-H226) [µM] | EC50 [1] [µM] | EC50 (NCI-H2052) [µM]
1 | C=CC(=O)NCc1nn(-c2ccc(C(F)(F)F)cc2)c2ccc(OC[C@H]3CCOC3)cc12 (single isomer, unassigned) [compound 47] | < 1 | < 1 | < 1
2 | CS(=O)(=O)NCc1nn(-c2ccc(C(F)(F)F)cc2)c2ccccc12 [compound 3, N-((1-(4-(trifluoromethyl)phenyl)-1H-indazol-3-yl)methyl)methanesulfonamide] | > 10 | < 1 | > 10
3 | C=CC(=O)NCc1nn(-c2ccc(C(F)(F)F)cc2)c2ccc(OCC#N)cc12 [Cpd. No. 43, N-[[5-(cyanomethoxy)-1-[4-(trifluoromethyl)phenyl]indazol-3-yl]methyl]prop-2-enamide] | < 1 | < 1 | < 1
4 | CC(=O)Nc1cn(-c2ccc(C(F)(F)F)cc2)c2ccccc12 [compound 21, N-(1-(4-(trifluoromethyl)phenyl)-1H-indol-3-yl)acetamide] | < 1 | < 1 | 1 to 10
5 | C=CC(=O)NCc1cc2ccccc2n1-c1ccc(C(F)(F)F)cc1 [compound 29, N-((1-(4-(trifluoromethyl)phenyl)-1H-indol-2-yl)methyl)acrylamide] | < 1 | < 1 | < 1
6 | C=CC(=O)NCc1nn(-c2ccc(C(F)(F)F)cc2)c2ncccc12 [compound 19, N-((1-(4-(trifluoromethyl)phenyl)-1H-pyrazolo[3,4-b]pyridin-3-yl)methyl)acrylamide] | < 1 | < 1 | < 1
7 | C=CC(=O)NCc1nn(-c2ccc(OC(F)(F)F)cc2)c2ccccc12 [Cpd. No. 4, N-((1-(4-(trifluoromethoxy)phenyl)-1H-indazol-3-yl)methyl)acrylamide] | < 1 | < 1 | < 1
8 | C=CC(=O)NCc1nn(-c2ccc(C(F)(F)F)cc2)c2ccccc12 [compound 1, N-((1-(4-(trifluoromethyl)phenyl)-1H-indazol-3-yl)methyl)acrylamide] | < 1 | < 1 | < 1
9 | C=CC(=O)NCc1cn(-c2ccc(C(F)(F)F)cc2)c2ccccc12 [compound 27, N-((1-(4-(trifluoromethyl)phenyl)-1H-indol-3-yl)methyl)acrylamide] | > 10 | < 1 | 1 to 10
10 | CS(=O)(=O)NCc1nn(-c2ccc(C(F)(F)F)cc2)c2ccc(Oc3ccccc3)cc12 [Cpd. No. 45, N-[[5-phenoxy-1-[4-(trifluoromethyl)phenyl]indazol-3-yl]methyl]methanesulfonamide] |  | 1 to 20 | 
11 | O=C1NCCN1Cc1nn(-c2ccc(C(F)(F)F)cc2)c2ccccc12 [compound 17, 1-((1-(4-(trifluoromethyl)phenyl)-1H-indazol-3-yl)methyl)imidazoiidin-2-one] |  | < 1 | 
12 | C=CC(=O)Nc1cn(-c2ccccc2)c2ccccc12 [compound 22, N-(1-phenyl-1H-indol-3-yl)acrylamide] |  | 1 to 20 | 
13 | C=CC(=O)NC1C(=O)N(c2ccc(C(F)(F)F)cc2)c2ccccc21 (stereo not shown) [compound 33, N-(2-oxo-1-(4-(trifluoromethyl)phenyl)indolin-3-yl)acrylamide] |  | 1 to 20 | 
14 | C=CC(=O)Nc1cn(-c2ccc(Cl)cc2)c2ccccc12 [compound 24, N-(1-(4-chlorophenyl)-1H-indol-3-yl)acrylamide] |  | < 1 | 
15 | O=S(=O)(NCc1nn(-c2ccc(C(F)(F)F)cc2)c2ccccc12)c1cccnc1 [compound 10, N-((1-(4-(trifluoromethyl)phenyl)-1H-indazol-3-yl)methyl)pyridine-3-sulfonamide] |  | > 20 | 
16 | C=CC(=O)Nc1cn(-c2cccc(Cl)c2)c2ccccc12 [compound 25, N-(1-(3-chlorophenyl)-1H-indol-3-yl)acrylamide] |  | 1 to 20 | 

Results, then the compound that gave them:

Row | EC50 (NCI-H226) [µM] | EC50 [1] [µM] | EC50 (NCI-H2052) [µM] | Compound
17 | < 1 | < 1 | < 1 | C=CC(=O)NCc1nn(C2CCC(F)(F)CC2)c2ccccc12 [compound 77, N-[[1-(4,4-difluorocyclohexyl)indazol-3-yl]methyl]prop-2-enamide]
18 | < 1 | < 1 | < 1 | C#CCOc1ccc2c(c1)c(CNC(=O)C=C)nn2-c1ccc(C(F)(F)F)cc1 [compound 63, N-[[5-prop-2-ynoxy-1-[4-(trifluoromethyl)phenyl]indazol-3-yl]methyl]prop-2-enamide]
19 | < 1 | < 1 | < 1 | C=CC(=O)NCc1nn(-c2ccc(C(F)(F)F)cc2)c2ccc(OCC3CC3)cc12 [compound 66, N-[[5-(cyclopropylmethoxy)-1-[4-(trifluoromethyl)phenyl]indazol-3-yl]methyl]prop-2-enamide]
20 | < 1 | < 1 | < 1 | C=CC(=O)NCc1nn(-c2ccc(C(F)(F)F)cc2)c2cc(OC3CC3)ccc12 [compound 50, N-[[6-(cyclopropoxy)-1-[4-(trifluoromethyl)phenyl]indazol-3-yl]methyl]prop-2-enamide]
21 | < 1 | < 1 | < 1 | C=CC(=O)NCc1nn(-c2ccc(C(F)(F)F)cc2)c2ccc(C(F)(F)F)cc12 [compound 71, N-[[5-(trifluoromethyl)-1-[4-(trifluoromethyl)phenyl]indazol-3-yl]methyl]prop-2-enamide]
22 | < 1 | < 1 | < 1 | C=CC(=O)NCc1nn(-c2ccc(C(F)(F)F)cc2)c2cc(C(F)(F)F)ccc12 [compound 74, N-[[6-(trifluoromethyl)-1-[4-(trifluoromethyl)phenyl]indazol-3-yl]methyl]prop-2-enamide]
23 | < 1 | < 1 | < 1 | C=CC(=O)NCc1nn(-c2ccc(C(F)(F)F)cc2)c2cnccc12 [compound 59, N-[[1-[4-(trifluoromethyl)phenyl]pyrazolo[3,4-c]pyridin-3-yl]methyl]prop-2-enamide]
24 |  | > 20 |  | CC(=O)NCc1nn(-c2ccc(C(F)(F)F)cc2)c2cc(C(F)(F)F)ccc12 [compound 75, N-[[6-(trifluoromethyl)-1-[4-(trifluoromethyl)phenyl]indazol-3-yl]methyl]acetamide]
25 |  | 1 to 20 |  | N#CCS(=O)(=O)NCc1nn(-c2ccc(C(F)(F)F)cc2)c2ccccc12 [compound 57, 1-cyano-N-[[1-[4-(trifluoromethyl)phenyl]indazol-3-yl]methyl]methanesulfonamide]
26 |  | < 1 |  | CS(=O)(=O)NCc1nn(-c2ccc(C(F)(F)F)cc2)c2ccc(OCC3CC3)cc12 [compound 68, N-[[5-(cyclopropylmethoxy)-1-[4-(trifluoromethyl)phenyl]indazol-3-yl]methyl]methanesulfonamide]
27 |  | > 20 |  | O=C(O)COc1cccc2c1cnn2-c1ccc(C(F)(F)F)cc1 [compound 69, 2-[1-[4-(trifluoromethyl)phenyl]indazol-4-yl]oxyacetic acid]
28 |  | > 20 |  | C#CCOc1ccc2c(c1)c(CNC(=O)CC)nn2-c1ccc(C(F)(F)F)cc1 [compound 64, N-[[5-prop-2-ynoxy-1-[4-(trifluoromethyl)phenyl]indazol-3-yl]methyl]propanamide]
29 |  | > 20 |  | CCC(=O)NCc1nn(-c2ccc(C(F)(F)F)cc2)c2ccc(OCC3CC3)cc12 [compound 67, N-[[5-(cyclopropylmethoxy)-1-[4-(trifluoromethyl)phenyl]indazol-3-yl]methyl]propanamide]
30 |  | > 20 |  | CCC(=O)NCc1nn(-c2ccc(C(F)(F)F)cc2)c2cc(OC3CC3)ccc12 [compound 62, N-[[6-(cyclopropoxy)-1-[4-(trifluoromethyl)phenyl]indazol-3-yl]methyl]propanamide]
31 |  | 1 to 20 |  | CS(=O)(=O)NCc1nn(-c2ccc(C(F)(F)F)cc2)c2ccc(OCc3ccccc3)cc12 [compound 56, N-[[5-benzyloxy-1-[4-(trifluoromethyl)phenyl]indazol-3-yl]methyl]methanesulfonamide]
32 |  | 1 to 20 |  | CS(=O)(=O)NCc1nn(-c2ccc(C(F)(F)F)cc2)c2cc(OC3CC3)ccc12 [compound 61, N-[[6-(cyclopropoxy)-1-[4-(trifluoromethyl)phenyl]indazol-3-yl]methyl]methanesulfonamide]
